{"source": "patent US6711436B1", "about": "“Compositions, apparatus and methods for facilitating surgical procedures” (priority 1997, dated 2004)", "test_system": "heart", "assay": "In vivo swine study of carbachol alone vs carbachol plus propranolol, intracoronary, to induce ventricular asystole", "conditions": "individual swine", "procedure": "Eleven male crossbred swine weighing 20-25 kg were studied, eight of which received carbachol alone and three of which received carbachol plus propranolol. The swine were sedated using 10 mg/kg IV ketamine. After 20 minutes, the animals were induced with 10 mg/kg IV thiopental sodium and orotracheally intubated. The proper anesthetic plane was maintained with 1% Isoflurane. Periodic arterial blood gas samples were obtained to guide ventilator management. The electrocardiograph was continuously monitored. Through a 7 Fr sheath in the left femoral artery, arterial blood samples were obtained and a micromanometer was inserted to monitor central aortic blood pressure (Millar Instruments, Inc., Houston, Tex.). The heart was exposed through a median sternotomy and suspended in a pericardial cradle. Two temporary epicardial pacing wires were affixed to the right ventricle and connected to an external pacemaker (Medtronic, Inc., Minneapolis, Minn.). The pacemaker was modified to permit deactuation by means of depressing a foot pedal. Through the femoral sheath, an AR-1 guide (Cordis Corp., Miami Lakes, Fla.) was placed into the right coronary artery. An 0.014-inch floppy guide wire was then advanced into the right coronary artery to the level of the posterior descending coronary artery. The AR-1 guide was removed and a 2.5 Fr Tracker (Cordis Corp., Miami Lakes, Fla.) catheter was inserted over the guide wire. Using dye injection, the catheter was positioned just proximal to the take-off of the atrioventricular node artery. Carbachol (Sigma St. Louis, Mo.) solution was prepared the day of the experiment and infused at a constant rate using a Harvard pump.\nAnimals received either carbachol alone or carbachol in combination with propranolol (Inderal®, Wyeth Ayerst, Philadelphia, Pa.). All animals were instrumented and allowed 10 minutes of hemodynamic stability. Before carbachol was administered, each subject received a 500 ml IV bolus of 0.9% sodium chloride.\nIn the animals receiving carbachol plus propranolol, a 1 mg dose of propranolol (0.04-0.05 mg/kg) was administered through the Tracker catheter. Carbachol was then administered as a 0.5 mg intracoronary bolus (0.02 mg/kg) followed by a constant infusion. […] After carbachol-mediated ventricular asystole was observed, the heart was paced at 100 beats/minute. […] The systolic blood pressure (SBP), diastolic blood pressure (DBP), and […] arterial pressure (MAP) were recorded every five minutes. The duration of ventricular asystole, defined in this example as a heart rate less than twelve beats per minute, was recorded. […] After 75 minutes, the carbachol infusion was stopped and the time required to return to normal sinus rhythm was recorded.", "note": "Where “and” joins values, the source holds several entries; their conditions need not be identical. Equal values may be shown once.", "data": [{"smiles": "C[N+](C)(C)CCOC(N)=O.[Cl-]", "note": "[carbachol, carbamyl choline chloride]", "values": [{"measurement": "time to NSR (normal sinus rhythm)", "setting": "after carbachol infusion was stopped (after 75 minutes)", "result": "8 min and 3 min"}, {"measurement": "duration of ventricular asystole", "setting": "asystole defined as heart rate less than twelve beats per minute, pacemaker turned off 5 s at 60-second intervals", "result": "87 min and 75 min (2×) and 53 min and 24 min and 76 min (2×) and 47 min"}, {"measurement": "carbachol dose (infusion rate per body weight) achieving ventricular asystole", "setting": "intracoronary infusion", "result": "86.0 μg/kg/min and 12.2 μg/kg/min and 9.7 μg/kg/min and 20.9 μg/kg/min and 41.9 μg/kg/min and 10.7 μg/kg/min (2×) and 31.0 μg/kg/min"}, {"measurement": "infusion rate of carbachol necessary to achieve ventricular asystole", "setting": "intracoronary infusion, doses increased until ventricular asystole observed, combination arm: 1 mg propranolol then 0.5 mg carbachol bolus before infusion", "result": "1.72 mg/min and 0.44 mg/min (5×) and 0.88 mg/min and 0.62 mg/min"}]}]}
